In patent US20090123391A1, “Novel Formulations” (3M INNOVATIVE PROPERTIES COMPANY, priority 2006, published 2009):

Assays:
[1] = Andersen Cascade Impactor (ACI) fine particle fraction of MDI; type: physicochemical; conditions: for Fine Particle Fraction (FPF) expressed as a percentage of the total dose target, for Compound D, 100 μg, and for Compound A, 100 μg: Example 4: Compound A in combination with Compound D, HFA-134a MDI 100/100 μg/act; for Fine Particle Fraction (FPF) expressed as a percentage of the total dose target, for Compound C, 12.5 μg and for Compound A, 25 μg: Example 3: Compound A in combination with Compound C, 25/12.5 μg/act; for Fine Particle Fraction (FPF) expressed as a percentage of the total dose target, for Compound C, 12.5 μg and for Compound A, 25 μg / Fine Particle Fraction expressed as a percentage of the total dose target, for Compound B, 10 μg and for the Compound A, 25 μg: MDI; for Fine Particle Fraction (FPF) expressed as a percentage of the total dose target, for Compound C, 12.5 μg and for Compound A, 25 μg / Fine Particle Fraction expressed as a percentage of the total dose target, for Compound B, 10 μg and for the Compound A, 25 μg / Fine Particle Fraction (FPF) expressed as percentage of the total dose target of Compound E, 100 μg and for Compound A, 50 μg: HFA 134a; for Fine Particle Fraction expressed as a percentage of the total dose target, for Compound B, 10 μg and for the Compound A, 25 μg: Example 2: Compound A in combination with Compound B; for Fine Particle Fraction (FPF) expressed as percentage of the total dose target of Compound E, 100 μg and for Compound A, 50 μg: Example 5: Compound E in combination with Compound A, MDI 100/50 μg/act
From the text: The fine particle fraction of the aerosol formulations according to the invention may be measured by conventional techniques, for example, by cascade impaction by measuring particle size distribution. The Cascade Impactor is designed to mimic the human buccal cavity and bronchial tract and the cascade Impactor test is designed to reveal the amount of deposition of inhaled drug substance at various stages thereof. As used herein reference to the “cascade impaction” assay means determination of the deposition of the emitted dose in pressurised inhalations as defined in European Pharmacopoeia, Section 2.9.18, 5th edition “Preparations for Inhalation, Apparatus D”. Such techniques enable the “respirable fraction” of the aerosol formulations to be calculated. One method used to calculate the “respirable fraction” is by reference to “fine particle fraction” which is the amount of active ingredient collected in stages 3 to 5 (aerodynamic diameter 1.1-4.7 μm) which represents the lung, per actuation expressed as a percentage of the total amount of active ingredient delivered per actuation using the cascade impactor method described above. Earlier stages represent the aerosol device itself, the throat and the upper reaches of the bronchial tract, and the later stages representing potential systemic absorption through the wall of the lung which may cause serious side effects.
The Andersen Cascade Impactor Mark II (ACI) was assembled and the flow rate was set to 28.3 L/min. The units were primed four times with the test actuator prior to dose collection, shaking between actuations. Between 5 and 20 actuations were collected in the ACI assembly. The ACI was disassembled and the components were rinsed with an appropriate amount of solvent that ensures dissolution of all formulation ingredients. The rinsate was collected for analysis by conventional HPLC analysis.

[2] = Dose Through Unit (DTU) dose uniformity of MDI; type: physicochemical; conditions: for overall mean dose delivered through the actuator, combining beginning and end of use: Example 4: Compound A in combination with Compound D, HFA-134a MDI 100/100 μg/act, target output compound D 90 μg, compound A 90 μg; for overall mean dose of medicament delivered through the actuator, combining beginning and end of use doses: MDI, Compound A 22.5 μg; for overall mean dose of medicament delivered through the actuator, combining beginning and end of use doses / overall mean dose delivered through the actuator, combined beginning and end of use: HFA 134a; for overall mean dose delivered through the actuator, combined beginning and end of use: Example 5: Compound E in combination with Compound A, MDI 100/50 μg/act, target output Compound E 90 μg, Compound A 45 μg
Description: The dose collection apparatus (500 ml separatory funnel with a cotton plug) was assembled and the flow rate was set to 20 L/min. Test units were stored at ambient conditions for two weeks after manufacture prior to DTU testing. For the testing at the beginning of the unit, the MDIs were primed two times with a priming actuator and four times to waste with the test actuator, shaking the units between each actuation. Two test actuations were collected in the dose collection apparatus, shaking the unit between actuations. The collection apparatus was rinsed with an appropriate volume of diluent, and the rinsate with the collected dose was analyzed by conventional HPLC analysis. For end of unit testing, the MDIs were actuated an additional 48 times to waste, shaking between each actuation. The MDIs were then actuated four times to waste through a new test actuator. Two test actuations were then collected in the dose collection apparatus, shaking the unit between actuations. The collection apparatus was rinsed with an appropriate volume of diluent, and the rinsate with the collected dose was analyzed by conventional HPLC analysis.
The reported results are the average of ten units at both the beginning and end of unit use.

[3] = 0.1% w/w of polymer of formula (II), 12 Week at 40° C./75% relative humidity
[4] = 0.1% w/w of polymer of formula (II), Initial

## OCc1cc([C@@H](O)CNCCCCCCOCCOCc2c(Cl)cccc2Cl)ccc1O [Compound D, 4-{(1R)-2-[(6-{2-[(2,6-dichlorobenzyl)oxy]ethoxy}hexyl)amino]-1-hydroxyethyl}-2-(hydroxymethyl) phenol]
[1]; [3]
  Fine Particle Fraction (FPF) expressed as a percentage of the total dose target, for Compound D, 100 μg, and for Compound A, 100 μg: 27%
[1]; [4]
  Fine Particle Fraction (FPF) expressed as a percentage of the total dose target, for Compound D, 100 μg, and for Compound A, 100 μg: 32%
[2]; [3]
  overall mean dose delivered through the actuator, combining beginning and end of use: 104%
[2]; [4]
  overall mean dose delivered through the actuator, combining beginning and end of use: 101%

## NS(=O)(=O)c1cccc(CCCCOCCCCCCNC[C@H](O)c2ccc(O)c(CO)c2)c1 [Compound C, 3-(4-{[6-({(2R)-2-hydroxy-2-[4-hydroxy-3-(hydroxymethyl)-phenyl]ethyl}amino)hexyl]oxy}butyl)benzenesulfonamide]
[1]; 0.1% w/w polymer of formula (II), 12 Week 40° C./75 relative humidity
  Fine Particle Fraction (FPF) expressed as a percentage of the total dose target, for Compound C, 12.5 μg and for Compound A, 25 μg: 25%
[1]; 0.1% w/w polymer of formula (II), Initial
  Fine Particle Fraction (FPF) expressed as a percentage of the total dose target, for Compound C, 12.5 μg and for Compound A, 25 μg: 28%
[1]; surfactant-free, 12 Week 40° C./75 relative humidity
  Fine Particle Fraction (FPF) expressed as a percentage of the total dose target, for Compound C, 12.5 μg and for Compound A, 25 μg: 21%
[1]; surfactant-free, Initial
  Fine Particle Fraction (FPF) expressed as a percentage of the total dose target, for Compound C, 12.5 μg and for Compound A, 25 μg: 14%
[2]; Example 3: Compound A in combination with Compound C, 25/12.5 μg/act, 0.1% w/w polymer of formula (II), 12 Week at 40° C./75 relative humidity, target output Compound C 11.3 μg
  overall mean dose of medicament delivered through the actuator, combining beginning and end of use doses: 112%
[2]; Example 3: Compound A in combination with Compound C, 25/12.5 μg/act, 0.1% w/w polymer of formula (II), Initial, target output Compound C 11.3 μg
  overall mean dose of medicament delivered through the actuator, combining beginning and end of use doses: 96%
[2]; Example 3: Compound A in combination with Compound C, 25/12.5 μg/act, surfactant-free, 12 Week at 40° C./75 relative humidity, target output Compound C 11.3 μg
  overall mean dose of medicament delivered through the actuator, combining beginning and end of use doses: 90%
[2]; Example 3: Compound A in combination with Compound C, 25/12.5 μg/act, surfactant-free, Initial, target output Compound C 11.3 μg
  overall mean dose of medicament delivered through the actuator, combining beginning and end of use doses: 80%

## O=CNc1cc([C@@H](O)CNCCc2ccc(NC[C@H](O)c3ccccc3)cc2)ccc1O [Compound B]
[1]; [3]
  Fine Particle Fraction expressed as a percentage of the total dose target, for Compound B, 10 μg and for the Compound A, 25 μg: 26%
[1]; [4]
  Fine Particle Fraction expressed as a percentage of the total dose target, for Compound B, 10 μg and for the Compound A, 25 μg: 25%
[1]; surfactant-free, 12 Week at 40° C./75% relative humidity
  Fine Particle Fraction expressed as a percentage of the total dose target, for Compound B, 10 μg and for the Compound A, 25 μg: 21%
[1]; surfactant-free, Initial
  Fine Particle Fraction expressed as a percentage of the total dose target, for Compound B, 10 μg and for the Compound A, 25 μg: 20%
[2]; Example 2: Compound A in combination with Compound B, 25/10 μg/act, 0.1% w/w of polymer of formula (II), 12 Week at 40° C./75% relative humidity, target output Compound B 8.5 μg
  overall mean dose of medicament delivered through the actuator, combining beginning and end of use doses: 99%
[2]; Example 2: Compound A in combination with Compound B, 25/10 μg/act, 0.1% w/w of polymer of formula (II), Initial, target output Compound B 8.5 μg
  overall mean dose of medicament delivered through the actuator, combining beginning and end of use doses: 98%
[2]; Example 2: Compound A in combination with Compound B, 25/10 μg/act, surfactant-free, 12 Week at 40° C./75% relative humidity, target output Compound B 8.5 μg
  overall mean dose of medicament delivered through the actuator, combining beginning and end of use doses: 73%
[2]; Example 2: Compound A in combination with Compound B, 25/10 μg/act, surfactant-free, Initial, target output Compound B 8.5 μg
  overall mean dose of medicament delivered through the actuator, combining beginning and end of use doses: 71%

## COc1ccc(Nc2ccc(CCNCC(O)c3ccc(O)c4[nH]c(=O)ccc34)cc2)cc1-c1ccccc1 (stereo not drawn) [Compound E, N-{2-[4-(3-phenyl-4-methoxyphenyl)aminophenyl]ethyl}-2-hydroxy-2-(8-hydroxy-2(1H)-quinolinon-5-yl)ethylamine]
[1]; [3]
  Fine Particle Fraction (FPF) expressed as percentage of the total dose target of Compound E, 100 μg and for Compound A, 50 μg: 28%
[1]; [4]
  Fine Particle Fraction (FPF) expressed as percentage of the total dose target of Compound E, 100 μg and for Compound A, 50 μg: 26%
[2]; [3]
  overall mean dose delivered through the actuator, combined beginning and end of use: 106%
[2]; [4]
  overall mean dose delivered through the actuator, combined beginning and end of use: 104%
